Laboratory results published in ChEMBL document CHEMBL2311411, “Lignans from Schisandra sphenathera Rehd. et Wils. and semisynthetic schisantherin A analogues: absolute configuration, and their estrogenic and anti-proliferative activity” (Eur J Med Chem, 2013).
Activity calls are given as the source filed them. No cut-off for these calls is given here.

Experiments:
[1] = Cytotoxicity against mouse LLC cells after 72 hrs by MTT assay; assay type: functional, cell-based; conditions: Lewis lung carcinoma
[2] = Cytotoxicity against human U87 cells after 72 hrs by MTT assay; assay type: functional, cell-based, U-87MG ATCC
HeLa = test: Cytotoxicity against human HeLa cells after 72 hrs by MTT assay; assay type: functional, cell-based
SMMC-7721 = test: Cytotoxicity against human SMMC7721 cells after 72 hrs by MTT assay; assay type: functional, cell-based; conditions: SMMC-7721, 72 h
[3] = Toxicity in brine shrimp larvae assessed as mortality after 24 hrs by microtiter plate analysis; assay type: organism-based; conditions: artemia salina, in vivo
MCF7 [4] = test: Estrogenic activity in human MCF7 cells at 1 uM by luciferase reporter gene assay; assay type: functional, cell-based
[5] = biological target: T1, DNA-binding protein inhibitor ID-1 (Homo sapiens) (UniProt P41134); test: Inhibition of ID1 in human U87 cells at 100 uM by luciferase reporter gene assay; assay type: cell-based; conditions: U-87MG ATCC
T1 sequence (whole entry): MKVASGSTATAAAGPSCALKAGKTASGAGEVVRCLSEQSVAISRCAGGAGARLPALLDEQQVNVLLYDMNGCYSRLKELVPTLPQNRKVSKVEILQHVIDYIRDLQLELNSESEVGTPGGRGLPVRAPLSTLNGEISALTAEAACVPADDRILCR

MCF7 [6] = test: Estrogenic activity in human MCF7 cells by luciferase reporter gene assay; assay type: functional, cell-based
MCF7 [7] = test: Estrogenic activity in human MCF7 cells at 5 uM by luciferase reporter gene assay; assay type: functional, cell-based
[8] = Homo sapiens, U-87 MG, 72 h, read-out: IC50

inhibition [5] [%]	Structure (SMILES)	IC50 [2, 8] [µM]	IC50 ([2]; u-87mg atcc)	further results
–	COc1cc2c(c(OC)c1OC)-c1c(cc3c(c1OC)OCO3)C[C@H](C)[C@]1(CO1)[C@H]2OC(=O)c1ccccc1 [SCHISANDRIN A1]	> 100	–	IC50 [1]: > 100 µM; IC50 (HeLa): 50.8 µM; IC50 (SMMC-7721): > 100 µM; LC50 at 24 h [3]: 97.5 µg/mL
–	COc1cc2c(c(OC)c1OC)-c1c(cc(OC)c(OC)c1OC)C[C@](C)(O)[C@@H](C)C2 [SCHIZANDRIN]	> 100	–	IC50 [1]: > 100 µM; Activity (MCF7 [4]): Active; IC50 (HeLa): > 100 µM; IC50 (SMMC-7721): > 100 µM; LC50 at 24 h [3]: > 100 µg/mL
32.7	CCCCCCCCCCCC(=O)O[C@H]1c2cc(OC)c(OC)c(OC)c2-c2c(cc3c(c2OC)OCO3)C[C@H](C)[C@]1(C)O	70	–	–
46.1	COc1cc(C=O)c(-c2c(C[C@H](C)C(C)=O)cc3c(c2OC)OCO3)c(OC)c1OC	–	Not Active	–
21.4	CCCCCCCCCCCCCC(=O)O[C@H]1c2cc(OC)c(OC)c(OC)c2-c2c(cc3c(c2OC)OCO3)C[C@H](C)[C@]1(C)O	–	Not Active	–
57.6	CCCCCCCC(=O)O[C@H]1c2cc(OC)c(OC)c(OC)c2-c2c(cc3c(c2OC)OCO3)C[C@H](C)[C@]1(C)O	–	Not Active	–
–	C[C@]12CC[C@@H]3c4ccc(O)cc4CC[C@H]3[C@@H]1CC[C@@H]2O	–	–	Activity (MCF7 [6]): Dose-dependent effect
36.6	CCCC(=O)O[C@H]1c2cc(OC)c(OC)c(OC)c2-c2c(cc3c(c2OC)OCO3)C[C@H](C)[C@]1(C)O	–	Not Active	–
–	COc1cc([C@H]2OC[C@]3(O)[C@@H](c4ccc(O)c(OC)c4)OC[C@H]23)ccc1O	–	–	Activity (MCF7 [7]): Active
–	CC(=O)O[C@@H]1C[C@H](O)[C@@]23CO[C@@H](O)[C@]1(C)[C@@H]2C[C@@H](O)[C@]1(C)[C@@H]3C(=O)[C@H](OC(C)=O)[C@@]2(C)[C@H](c3ccoc3)C[C@H]3O[C@]321 [TOOSENDANIN]	–	–	LC50 at 24 h [3]: < 1 µg/mL
36.3	CCCCC(=O)O[C@H]1c2cc(OC)c(OC)c(OC)c2-c2c(cc3c(c2OC)OCO3)C[C@H](C)[C@]1(C)O	–	Not Active	–
1	COc1cc2c(c(OC)c1OC)-c1c(cc3c(c1OC)OCO3)C[C@H](C)[C@](C)(O)[C@H]2O [SCHISANTHEROL A]	–	Not Active	–
–	COc1cc([C@H]2OC[C@]3(O)[C@@H](c4ccc(O)c(OC)c4)OC[C@]23O)ccc1O	–	–	Activity (MCF7 [7]): Active
46.9	CCCCCCCCCC(=O)O[C@H]1c2cc(OC)c(OC)c(OC)c2-c2c(cc3c(c2OC)OCO3)C[C@H](C)[C@]1(C)O	58.8	–	–
63.7	CCCCCC(=O)O[C@H]1c2cc(OC)c(OC)c(OC)c2-c2c(cc3c(c2OC)OCO3)C[C@H](C)[C@]1(C)O	67.4	–	–
–	COc1ccc([C@H]2OC[C@]3(O)[C@@H](c4ccc(OC)c(O)c4)OC[C@H]23)cc1O	–	–	LC50 at 24 h [3]: > 100 µg/mL
57.8	CCCCCCC(=O)O[C@H]1c2cc(OC)c(OC)c(OC)c2-c2c(cc3c(c2OC)OCO3)C[C@H](C)[C@]1(C)O	61.7	–	–
–	COc1c2c(cc3c1-c1c(cc4c(c1OC)OCO4)C[C@H](C)[C@H](C)C3)OCO2 [SCHISANDRIN C]	> 100	–	IC50 [1]: > 100 µM; IC50 (HeLa): > 100 µM; IC50 (SMMC-7721): > 100 µM
4.8	CCCCCCCCCCCCCCCC(=O)O[C@H]1c2cc(OC)c(OC)c(OC)c2-c2c(cc3c(c2OC)OCO3)C[C@H](C)[C@]1(C)O	–	Not Active	–
